The target of one assay is T1, 5-LOX (Homo sapiens, UniProt P09917).
T1 sequence (P09917 1-674): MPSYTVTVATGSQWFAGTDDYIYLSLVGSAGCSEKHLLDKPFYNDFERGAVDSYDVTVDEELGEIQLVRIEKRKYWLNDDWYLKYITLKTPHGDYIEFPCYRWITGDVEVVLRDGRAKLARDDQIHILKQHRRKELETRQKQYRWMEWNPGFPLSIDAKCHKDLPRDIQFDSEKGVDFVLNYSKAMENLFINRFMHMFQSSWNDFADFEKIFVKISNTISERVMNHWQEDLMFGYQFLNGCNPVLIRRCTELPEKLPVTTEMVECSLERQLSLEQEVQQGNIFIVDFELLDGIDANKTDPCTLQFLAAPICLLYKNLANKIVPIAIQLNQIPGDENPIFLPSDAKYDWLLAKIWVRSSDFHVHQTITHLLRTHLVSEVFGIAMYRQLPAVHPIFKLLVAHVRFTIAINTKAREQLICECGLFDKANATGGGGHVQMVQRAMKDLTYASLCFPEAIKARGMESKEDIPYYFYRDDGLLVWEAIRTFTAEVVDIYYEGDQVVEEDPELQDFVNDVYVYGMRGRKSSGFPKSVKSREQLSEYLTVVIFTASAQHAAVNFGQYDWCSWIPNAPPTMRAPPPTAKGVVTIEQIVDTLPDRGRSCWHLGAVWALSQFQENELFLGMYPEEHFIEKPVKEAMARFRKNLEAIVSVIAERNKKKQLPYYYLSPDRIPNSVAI
Put plainly: 5-LOX fluorescent assay (in vitro lipoxygenase inhibition). Format: biochemical. Put shortly:
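Recombinant human 5-LOX cell lysate pre-incubated 15 min with inhibitor in 50 mM Tris pH 7.5, 0.1 mM EDTA, 0.3 mM CaCl2. Reaction started with 20 μM arachidonic acid plus 100 μM ATP, with 1 μM DHR123 as fluorescent probe. IC50 from percent inhibition per dose via 4-parameter logistic or sigmoidal dose-response fit.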

The target of another assay is T2, 12-LOX (Homo sapiens, UniProt P18054).
T2 sequence (P18054 1-663): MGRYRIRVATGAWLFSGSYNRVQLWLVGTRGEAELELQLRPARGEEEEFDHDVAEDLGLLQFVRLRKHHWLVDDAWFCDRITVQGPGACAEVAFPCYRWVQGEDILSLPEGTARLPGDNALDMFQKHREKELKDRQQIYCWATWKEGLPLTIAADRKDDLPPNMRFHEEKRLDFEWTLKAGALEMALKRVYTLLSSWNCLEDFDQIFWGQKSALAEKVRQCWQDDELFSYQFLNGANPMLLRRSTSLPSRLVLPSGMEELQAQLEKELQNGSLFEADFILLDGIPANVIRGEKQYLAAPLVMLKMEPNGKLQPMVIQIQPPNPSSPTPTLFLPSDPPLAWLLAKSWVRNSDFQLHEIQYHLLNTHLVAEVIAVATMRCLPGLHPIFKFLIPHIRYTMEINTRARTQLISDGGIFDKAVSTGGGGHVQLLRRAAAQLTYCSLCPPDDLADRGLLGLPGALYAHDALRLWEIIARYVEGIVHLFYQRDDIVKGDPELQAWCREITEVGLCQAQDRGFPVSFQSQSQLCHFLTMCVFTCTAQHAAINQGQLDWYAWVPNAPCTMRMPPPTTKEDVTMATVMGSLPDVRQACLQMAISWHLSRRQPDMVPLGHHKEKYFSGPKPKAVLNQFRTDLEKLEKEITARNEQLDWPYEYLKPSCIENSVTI
Kind of assay: 12-LOX fluorescent assay (in vitro lipoxygenase inhibition). Format: biochemical. Put shortly: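 Fluorescent assay in 50 mM Tris pH 7.5, 0.05% Tween-20, with 100 nM recombinant 12-LOX preincubated 15 min with inhibitor. Reaction was started with 20 μM arachidonic acid substrate and 1 μM DHR123. Percent inhibition per dose was fitted by 4-parameter logistic or sigmoidal dose-response for IC50.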

Setting [1] is: recombinant 5-LOX cell lysate, 20 μM AA, DHR123 fluorescence, several values in a cell = repeat determinations, read-out: IC50 (μM) values for in vitro lipoxygenase inhibition, 5-LOX.
Where [2] appears, read: 100 nM recombinant 12-LOX, 20 μM AA, DHR123 fluorescence, several values in a cell = repeat determinations, read-out: IC50 (μM) values for in vitro lipoxygenase inhibition, 12-LOX.

“And” between values parts separate entries of the source, which are not always exact repeats. Identical values can stand only once. Like-named read-outs stand apart in the source and are kept apart here.

Turning to `Cn1cncc1-c1ccc(Nc2ccccc2)cc1NCCn1cncn1` [SS20308-0177-01, N^3-(2-(1H-1,2,4-triazol-1-yl)ethyl)-4-(1-methyl-1H-imidazol-5-yl)-N^1-phenylbenzene-1,3-diamine], the values for the concentration for half-maximal inhibition (IC50) on 5-LOX (setting [1]) and at 12-LOX (setting [2]) were 1.45 µM and 0.72 µM, respectively.
For `O=C(CCn1cncn1)Nc1cc(Nc2ccccc2)ccc1-c1ccccc1` [SS20308-0134-01, N-(4-(phenylamino)-[1,1′-biphenyl]-2-yl)-3-(1H-1,2,4-triazol-1-yl)propanamide] the same measures were 2.32 µM and 1.49 µM.
For `c1cc(NCC2(Cn3cncn3)COC2)cc(NC2CCCCC2)c1` [SS20308-0241-01, N^1-((3-((1H-1,2,4-triazol-1-yl)methyl)oxetan-3-yl)methyl)-N^3-cyclohexylbenzene-1,3-diamine] the same measures were 1.09 µM and 0.36 µM.
With `c1ccc(Nc2ccc(-c3ccccc3)c(NCCCn3cncn3)c2)cc1` [SS20308-0178-01, N^2-(3-(1H-1,2,4-triazol-1-yl)propyl)-N^4-phenylbiphenyl-2,4-diamine], the half-inhibitory concentration (IC50) on 5-LOX was 150 nM and 210 nM (2×) and 90 nM; at 12-LOX, 0.09 µM and 0.11 µM and 0.07 µM and 0.14 µM.
On to `Cc1cc(Nc2ccc(F)c(Cl)c2)ccc1NCC1(Cn2cncn2)COC1` [SS20308-0307-01, N^1-((3-((1H-1,2,4-triazol-1-yl)methyl)oxetan-3-yl)methyl)-N^4-(3-chloro-4-fluorophenyl)-2-methylbenzene-1,4-diamine], for which the 50% inhibitory concentration (IC50) at 5-LOX (setting [1]) is 0.05 µM and 0.06 µM; at 12-LOX (setting [2]), 0.02 µM and 0.06 µM.
For the compound `c1cc(NCCCn2cncn2)cc(NC2CCCCC2)c1` [SS20308-0238-01, N^1-(3-(1H-1,2,4-triazol-1-yl)propyl)-N^3-cyclohexylbenzene-1,3-diamine], the figures for the IC50 at 5-LOX (setting [1]) and at 12-LOX (setting [2]) were 0.4 µM and 0.17 µM, respectively.
For `c1ccc(CNc2cnc(NCCn3cncn3)c(-c3ccccc3)c2)cc1` [SS20308-0212-01, N^2-(2-(1H-1,2,4-triazol-1-yl)ethyl)-N^5-benzyl-3-phenylpyridine-2,5-diamine] the same measures were 2.93 µM and 1.61 µM.
Regarding `Cc1cc(Nc2ccc(Cl)c(F)c2)ccc1NCC1(Cn2cccn2)COC1` [SS20308-0327-01, N1-((3-((1H-pyrazol-1-yl)methyl)oxetan-3-yl)methyl)-N4-(4-chloro-3-fluorophenyl)-2-methylbenzene-1,4-diamine], the IC50 on 5-LOX (setting [1]) is 0.07 µM; on 12-LOX (setting [2]) it was 0.04 µM.
On the same counts, the results for `c1ccc(CNc2ccc(NCCn3cncn3)c(-c3cccs3)n2)cc1` [SS20308-0218-01, N^5-(2-(1H-1,2,4-triazol-1-yl)ethyl)-N^2-benzyl-6-(thiophen-2-yl)pyridine-2,5-diamine] are 0.02 µM and 0.01 µM.

The record behind these values is patent US20230117592A1 (SRI International, priority 2019, published 2023).
